Measured values as given in patent US10590116B2, “3-indolyl furanoids as inhibitors of matrix metalloproteinase-9 for prevention of gastric ulcer and other inflammatory diseases” (Council of Scientific & Industrial Research, priority 2017, dated 2020).
Entries after “also recorded” stand apart in the source; their conditions may differ.

Tests used:
[1] = system: gastric epithelium and submucosa; assay: Haematoxylin-eosin staining of gastric tissue sections; type: in vivo; settings: 50 mg/kg body weight, indomethacin ulcerated mice
Text: To understand the fine information about the physical condition (the level of damage and/or intactness) of cells tissues under observation, different tissue samples were fixed in 10% formalin and embedded in paraffin. Tissue sections were deparaffinized with xylene and rehydrated with descending alcohol series. The sections were cut using microtome, and stained with hematoxylin and eosin, or subjected to Terminal deoxynucleotidyl transferase-mediated dUTP Nick End Labeling (TUNEL) assay by using a in situ apoptosis detection kit. Fixation, permeabilization, and staining were carried out in exact parallel to ensure comparative significance among normal, ulcerated and compound 5 treated groups. […] Images at 10× and 40× magnification were captured using Camedia software (E-20P 5.0 Megapixel) and processed under Adobe Photoshop version 7.0 (FIG. 1B).
Tissue sections were stained with hematoxylin and eosin stain. Fixation, permeabilization, and staining were carried out in parallel in normal, ulcerated and compound 5 treated groups to ensure comparative significance among different treatment. TUNEL assay is used for detection and quantification of apoptosis in gastric tissues, based on labelling of DNA strand breaks. Terminal deoxynucleotidyl transferase-mediated dUTP Nick End Labeling (TUNEL) assay was performed by using an in situ apoptosis detection kit. […]

protein carbonyl = assay: Measurement of protein carbonyl in gastric tissue homogenate; type: in vivo; settings: 50 mg/kg bw, ulcerated mice
Protocol: Protein carbonyl groups are considered as biomarkers of oxidative stress. Protein oxidation was measured as carbonyl content in the low speed supernatant of the gastric tissue homogenate. The stomach from control, stress ulcerated, and compound 5 treated (50 mg/kg bw) mice were homogenized in 50 mM sodium phosphate buffer pH 7.4 in a Potter-Elvehjem glass homogenizer for 2 min to get 20% homogenate. After centrifugation at 600 g for 10 min, the proteins from 1.0 mL of the supernatant were precipitated with 10% trichloroacetic acid and allowed to react with 0.5 mL of 10 mM 2,4-dinitrophenyl hydrazine for 1 h. After precipitation with 20% trichloroacetic acid, proteins were washed thrice with a mixture of ethanol-ethyl acetate (1:1), dissolved in 1.0 mL of a solution containing 6 M guanidine HCl in 20 mM potassium phosphate adjusted to pH 2.3 with trifluroacetic acid, and centrifuged. The absorbance of the supernatant was read at 362 nm for carbonyl content (E=22,000/M/cm).
The fundic stomach homogenate was used for measurement of protein carbonyl formation as nmol/mg protein.

[2] = Toxicity studies through repeat daily dosing; type: in vivo
Protocol: FIG. 4 gives the In vivo toxicity test. Male and female BALB/c mice (n=10) received indicated doses of compound 5 by daily gavage. Control mice received vehicle (olive oil). Body weights were determined 4 days before the start of the treatment and then throughout the period of treatment until day 25. Data points represent mean body weight.
The purpose of this study was to assess the efficacy of prolonged oral compound 5 treatment and ascertaining adverse impact, if any. […] The female mice were, on an average, 4 g lighter than male mice which is consistent with the common sex-specific weight difference.

[3] = Pharmacokinetic profiling in rat; type: in vivo, Sprague Dawley rats; settings: single dose 250 mg/kg oral gavage, male rats, plasma
Protocol: Male sprague dawley rats (n=6) received a single dose of 250 mg/kg body weight compound 5 by oral gavage. Compound 5 levels in plasma were determined by HPLC. Values represent mean plasma levels.
Column chromatography was carried out using silica gel 100-200 mesh. Analytical thin-layer chromatography (TLC) was performed with silica gel 60 F254 aluminium sheets. ^1H NMR spectra were recorded on a Bruker DPX 300 MHz or Bruker DRX 600 MHz NMR instrument at ambient temperature in CDCl3, CD3OD or DMSO-d6. ^13C NMR spectra were recorded at 75 MHz or 150 MHz at ambient temperature. The chemical shifts were recorded in parts per million (ppm) with TMS as internal reference. All ^13C NMR spectra were recorded with complete proton decoupling. Mass spectral data refer to EIMS or ESIMS and are recorded in m/z unit. DI-EIMS were recorded on a GC-MS Shimadzu-QP5050A and ESIMS were done on a Waters® Micromass® Q-TOF Mass Spectrometer. Melting points are recorded on a SPAC-N SERVICE (India) melting point apparatus (Laboratory device) in open capillaries and are uncorrected. Elemental analyses were performed by Perkin-Elmer CHN/O analyzer model 2400, series II. HPLC analysis of plasma samples were performed on a Shimadzu Model SPD-M10Avp equipped with LC-10ATvp HPLC pump, Hamamatsu Deuterium Lamp type L6585 photodiode array detector. Chromatography was achieved using a Phenomenex Luna 5 μm C18 (2) 100 Å LC Column (150×4.6 mm I. D.) with Guard Cartridges C18 (4×3.0 mm). The mobile phase consisted of 15% water in acetonitrile, and solutes were eluted using a flow rate 1.0 mL/min. The column was re-equilibrated at initial conditions for 5 min before the next analysis. Analytical HPLC conditions were as follows: column, Pheomenex C18 (250 mm×4.6 mm, particle size 5 μm) with solvent combination of 0.5-1.0% TFA in water:acetonitrile in various ratios at a flow rate of 0.5-1.0 mL/min, detection at 254 nm. Purity of tested compounds was established by analytical reverse phase HPLC, confirming a purity of at least 95%. Unless otherwise stated, reagents were procured from commercial sources and were used without further purification.
In order to assess the time course of action and disposition of compound 5 in vivo, pharmacokinetic studies in Sprague Dawley rats were conducted. The curve was linear in the range investigated and the extraction efficiency was greater than 70%.

[4] = 150 or 300 mg/kg body weight/day for 25 days, daily gavage

COc1cccc2[nH]cc(-c3cc(-c4ccccc4)oc3-c3ccccc3)c12 [compound 5, 4-methoxy-3-(2,5-diphenylfuran-3-yl)-1H-indole]
gastric injury, haematoxylin-eosin staining [1]: minimum injury and intact epithelial layer; also recorded: prevents indomethacin induced gastric injury | Protein carbonylation (protein carbonyl): 1.58±0.18 nmol/mg protein | Protein carbonylation (protein carbonyl; listed as Compound 5): 1.58 ± 0.18 nmol/mg protein | body weight, treated versus control groups [2, 4]: no differences in body weight | clinical signs of toxicity (lethargy, abdominal distension, fur loss, hunching) [2, 4]: no clinical signs of toxicity | toxicity, general statement ([2]; mouse, in vivo): non-toxic | Cmax ([3]; Sprague-Dawley, rat): 104 µg/mL | Tmax ([3]; Sprague-Dawley, rat): ~6 h | half-life ([3]; Sprague-Dawley, rat): 7 h | area under the curve [3]: 1273.8 µg·h/mL
